In patent publication US8114877B2, “Organic compounds” (Novartis AG, priority 2005, dated 2012):
Counter-ions that a name gives are not always drawn.

Molecular target: adenosine A2A receptor (Homo sapiens, UniProt P29274)
Assay: adenosine A2A receptor agonist assay, method of Murphree et al, Molecular Pharmacology 61, 455-462 (2002)
Format: binding
Settings: method of L. J. Murphree et al
Excerpt: Compounds of formula I and their pharmaceutically acceptable salts are useful as pharmaceuticals. In particular, they activate the adenosine A2A receptor, i.e. they act as A2A receptor agonists.

Chain of adenosine A2A receptor (P29274 whole entry): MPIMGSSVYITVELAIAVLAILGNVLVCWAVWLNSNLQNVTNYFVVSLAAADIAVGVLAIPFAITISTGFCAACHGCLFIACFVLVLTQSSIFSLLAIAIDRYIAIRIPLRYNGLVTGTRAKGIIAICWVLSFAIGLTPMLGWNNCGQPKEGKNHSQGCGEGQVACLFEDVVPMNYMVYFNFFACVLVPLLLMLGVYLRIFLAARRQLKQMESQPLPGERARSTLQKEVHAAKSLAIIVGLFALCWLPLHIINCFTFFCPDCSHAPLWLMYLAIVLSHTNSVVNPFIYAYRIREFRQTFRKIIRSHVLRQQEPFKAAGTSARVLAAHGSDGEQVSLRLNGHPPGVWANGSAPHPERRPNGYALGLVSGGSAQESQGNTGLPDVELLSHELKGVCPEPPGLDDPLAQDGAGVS

Ki [nM] | SMILES
272 | NC1CCC(Nc2nc(NCC(c3ccccc3)c3ccccc3)c3ncn(C4CC(n5cccn5)C(O)C4O)c3n2)CC1 [Example 12, (1R,2S,3R,1S)-3-[2-(4-Amino-cyclohexylamino)-6-(2,2-diphenyl-ethylamino)-purin-9-yl]-5-pyrazol-1-yl-cyclopentane-1,2-diol]
43 | Cc1nnn([C@H]2C[C@@H](n3cnc4c(NCC(c5ccccc5)c5ccccc5)nc(N[C@@H]5CCNC5)nc43)[C@H](O)[C@@H]2O)n1 [Example 7, (1R,2S,3R,5S)-3-[6-(2,2-Diphenyl-ethylamino)-2-((R)-pyrrolidin-3-ylamino)-purin-9-yl]-5-(5-methyl-tetrazol-2-yl)-cyclopentane-1,2-diol trifluoroacetate]
